In ChEMBL document CHEMBL1136419, “Homologues and isomers of noladin ether, a putative novel endocannabinoid: interaction with rat cannabinoid CB(1) receptors” (Bioorg Med Chem Lett, 2003):

What was measured:
Format in all cases: cell membranes
Cannabinoid receptor 1 [1] = biological target: T1, Cannabinoid receptor 1 (Rattus norvegicus, UniProt P20272); experiment: Binding affinity towards cannabinoid CB1 receptor in rat brain membrane by displacement of [3H]SR-141,716A
[2] = biological target: Cannabinoid receptor 1 (Rattus norvegicus) (UniProt P20272); experiment: Binding affinity towards CB1 receptor in rat brain membrane by displacement of [3H]SR-141,716A relative to HU-210
Cannabinoid receptor 1 (Rattus norvegicus), sequence (P20272 whole entry): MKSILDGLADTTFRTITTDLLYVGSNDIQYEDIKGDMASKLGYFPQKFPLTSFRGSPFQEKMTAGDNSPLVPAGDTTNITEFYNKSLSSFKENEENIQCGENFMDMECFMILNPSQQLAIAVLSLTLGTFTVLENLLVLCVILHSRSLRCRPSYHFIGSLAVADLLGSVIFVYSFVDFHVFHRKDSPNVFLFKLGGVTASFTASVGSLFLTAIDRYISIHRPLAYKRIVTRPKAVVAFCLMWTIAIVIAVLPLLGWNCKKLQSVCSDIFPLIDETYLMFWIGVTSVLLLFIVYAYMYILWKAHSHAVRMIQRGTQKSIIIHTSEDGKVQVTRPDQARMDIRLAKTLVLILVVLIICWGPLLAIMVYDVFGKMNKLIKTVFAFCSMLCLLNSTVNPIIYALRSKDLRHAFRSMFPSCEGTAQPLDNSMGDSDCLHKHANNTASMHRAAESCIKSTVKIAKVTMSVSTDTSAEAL

Cannabinoid receptor 1 [3] = biological target: T1, Cannabinoid receptor 1; experiment: Binding affinity towards cannabinoid CB1 receptor in rat brain membrane by displacement of [3H]SR-141,716A at 50 uM

T1 sequence (P20272 whole entry): as above

Row | Compound | Ki (Cannabinoid receptor 1 [1]) | Krel [2] | Ki (Cannabinoid receptor 1 [3])
1 | CCCCCCCC[C@@H]1C[C@@H]1CCCCCCCCCCCCOC(CO)CO (single isomer, unassigned) | > 50 µM | > 125000 | –
2 | CCCCC/C=C\C/C=C\C/C=C\C/C=C\CCCCOCC(O)CO (stereo in doubt; 5a) [listing 1 of 2 here] | – | 1250 | –
3 | CCCCCCCCCCCCCCCCOC(CO)CO | > 50 µM | > 12500 | –
4 | CCCCCCCC/C=C\CCCCCCCCOC(CO)CO | 25.6 µM | 6400 | –
5 | CCCCC/C=C\C/C=C\C/C=C\C/C=C\CCCCOCC(O)CO (stereo in doubt; 5b) | – | 625 | –
6 | CCCCCC/C=C/C#CCCCCCCCCOC(CO)CO | – | > 125000 | > 50 µM
7 | CCCCCCCC[C@@H]1C[C@@H]1CCCCCCCCOC(CO)CO | > 50 µM | > 125000 | –
8 | CCCCCCCCCCCCCCCCOCC(O)CO (centres undefined) | > 50 µM | > 12500 | –
9 | CC(C)=CCC/C(C)=C/COC(CO)CO | > 50 µM | > 12500 | –
10 | CC(C)=CCC/C(C)=C/CC/C(C)=C/COC(CO)CO | > 50 µM | > 12500 | –
11 | CC(C)=CCC/C(C)=C/COCC(O)CO (centres undefined) | > 50 µM | > 12500 | –
12 | CCCCC/C=C\C/C=C\C/C=C\CCCCCOC(CO)CO | 13.9 µM | 3480 | –
13 | CCCCC/C=C\C/C=C\CCCCCCCCOC(CO)CO | 22.5 µM | 5620 | –
14 | CCCCCCCC/C=C\CCCCCCCCCCCCOC(CO)CO | – | > 12500 | > 50 µM
15 | CCCCCC[C@@H]1C[C@@H]1C#CCCCCCCCCOC(CO)CO | > 50 µM | > 125000 | –
16 | CCCCC/C=C\C/C=C\C/C=C\C/C=C\CCCCOCC(O)CO (stereo in doubt; 5a) [listing 2 of 2 here] | 5 µM | – | –
